These results are taken from PMC4941645, “Oxidative Stress Induced by Pt(IV) Pro-drugs Based on the Cisplatin Scaffold and Indole Carboxylic Acids in Axial Position” (Scientific Reports, 2016).

Holding throughout (format): cell-based, human
In assay [1] the test system is C13* cisplatin-resistant ovarian cancer cells. Kind of assay: MTT cytotoxicity test, cisplatin-resistant C13*. The following applies: for IC50: C13* cisplatin-resistant, 72 h, MTT, ± S.D.; for RF (resistance factor): IC50 resistant (C13*) / parent line (2008). The procedure:
The cytotoxic properties of the complexes were also evaluated in a pair of tumor cell lines suitably selected for their sensitivity and resistance to cisplatin (adenocarcinoma cells 2008/C13^*). Cross-resistance profiles were evaluated by means of the resistance factor (RF), defined as the ratio between IC50 values calculated for the resistant cells and those obtained with the sensitive ones (Table 2). The phenomenon of cisplatin resistance is multifactorial in nature.
(§1) Cisplatin was dissolved in 0.9% NaCl solution.
(§2) Human breast (MCF-7), colon (HCT-15), lung (A549) and pancreatic (BxPC3) carcinoma cell lines together with melanoma (A375) cells were obtained from American Type Culture Collection (ATCC, Rockville, MD). The human ovarian cancer cell line 2008 and its cisplatin resistant variant, C13*, were kindly provided by Prof. G. Marverti (Department of Biomedical Science of Modena University, Italy). Human cervical carcinoma (A431) cells were kindly provided by Prof. F. Zunino (Division of Experimental Oncology B, Istituto Nazionale dei Tumori, Milan, Italy). Cell lines were maintained in the logarithmic phase at 37 °C in a 5% carbon dioxide atmosphere using the following culture media containing 10% fetal calf serum (Euroclone, Milan, Italy), antibiotics (50 units/mL penicillin and 50 μg/mL streptomycin) and 2 mM L-glutamine: (i) RPMI-1640 medium (Euroclone) for 2008, C13*, MCF-7, HCT-15, A431 and BxPC3 cells, (ii) F-12 HAM’S (Sigma Chemical Co.) for A549 cells, iii) DMEM (Sigma Chemical Co.) for A375 cells.
(§3) The growth inhibitory effect toward tumor cells was evaluated by means of the MTT assay. Briefly, (3–8) × 10^3 cells/well, dependent upon the growth characteristics of the cell line, were seeded in 96-well microplates in growth medium (100 μL). After 24 h, the medium was removed and replaced with fresh medium containing the compound to be studied at the appropriate concentration. Triplicate cultures were established for each treatment. After 24, 48, or 72 h, each well was treated with 10 μL of a 5 mg/mL MTT saline solution and, after 5 h of incubation, 100 μL of a sodium dodecylsulfate (SDS) solution in 0.01 M HCl was added. After an overnight incubation, cell growth inhibition was detected by measuring the absorbance of each well at 570 nm using a Bio-Rad 680 microplate reader. The mean absorbance for each drug dose was expressed as a percentage of the control, untreated well absorbance and plotted vs drug concentration. The IC50 values, the drug concentrations that decrease the mean absorbance at 570 nm to 50% of that of untreated control wells, were calculated from the dose–response curves with the four-parameter logistic model (4PL). The final value is the mean ± S.D. of at least three independent experiments performed in triplicate.

The subject of assay [2] is nuclear DNA of A375 cells. Kind of assay: Nuclear DNA platination (GF-AAS). The following applies: A375, 5 μM, 24 h. The procedure:
It is well known that the main cellular target of platinum complexes is the DNA, and platination of nuclear DNA is a critical step in triggering the death of cancer cells by platinum-based drugs. On this basis, the amount of platinum bound to nuclear DNA was also assessed in A375 cells treated with the tested Pt(IV) complexes. Cells were treated for 24 h with 5 μM of the tested complexes, the nuclear DNA was isolated and the amount of Pt in each sample was determined by means of GF-AAS analysis. The results expressed as pg Pt/ng DNA are depicted in Fig. 7. […] In particular, 1P led to a roughly 60-fold higher DNA platination level with respect to cisplatin.
A375 cells (3 × 10^6) were seeded in 10 cm Petri dishes in 10 mL of culture medium. Subsequently, cells were treated with the tested complexes (5 μM) for 24 h. The DNA was extracted and purified by a commercial spin column quantification kit (Qiagen DNeasy Blood and Tissue Kit). Only highly purified samples (A260/A230 ≅ 1.8 and […]) were included for analysis to avoid any artifacts. The samples were completely dried and re-dissolved in 200 μL of Milli-Q water (18.2 MΩ) for at least 20 min at 65 °C in a shaking thermo-mixer, mineralized and analyzed for total Pt content by GF-AAS as described above.

For assay [3], the system named is HCT-15 colon carcinoma cells. The experiment in a line: MTT cytotoxicity test, HCT-15. The following applies: for IC50: HCT-15, 72 h, MTT, ± S.D.; for times more effective than cisplatin: HCT-15 cells. The procedure: (§4) The cytotoxic activity of the complexes and of the uncoordinated ligands was evaluated by the MTT test on a panel of human tumor cell lines containing examples of pancreatic (BxPC3), colorectal (HCT-15), breast (MCF-7), cervical (A431), and lung (A549) cancers as well as of melanoma (A375). For comparison purposes, the cytotoxicity of cisplatin was evaluated under the same experimental conditions.
as §1, §2, §3

The test system of assay [4] is BxPC3 pancreatic carcinoma cells. The experiment in a line: MTT cytotoxicity test, BxPC3. To be noted: for IC50: BxPC3, 72 h, MTT, ± S.D.; for times more effective than cisplatin: BxPC3 cells. The procedure:
as §4, §1, §2, §3

Assay [5] has as its system A375 cells. Kind of assay: ROS production (CM-H2DCFDA probe). To be noted: A375, 12.5 μM, compared with antimycin positive control. The procedure: ROS are products of normal cell metabolism but their levels can be increased upon exposure to toxic agents or interference with the cellular redox network. […] Consequently, cellular ROS levels upon treatment with equal doses (12.5 μM) of the different platinum complexes were monitored in A375 cancer cells by using the peroxide-sensitive fluorescent probe CM-H2DCFDA (5-(and-6)-chloromethyl-2′,7′-dichlorodihydrofluorescein diacetate, acetyl ester). Antimycin, a classical inhibitor of the mitochondrial respiratory chain at the level of complex III, was used as a positive control.
Figure 8 ROS production in A375 cells. Cells were preincubated in PBS/10 mM glucose medium for 20 min at 37 °C in the presence of 10 μM CM-DCFDA and then treated with equimolar doses (12.5 μM) of indole propionic acid Pt(IV) derivatives (panel A) or indole acetic acid Pt(IV) derivatives (panel B). The fluorescence of DCF was measured.
The production of ROS was measured in A375 cells (10^4 per well) grown for 24 h in 96-well plates in DMEM medium without phenol red (Sigma Chemical Co.). Cells were then washed with PBS and loaded with 10 μM 5-(and-6)-chloromethyl-2′,7′-dichlorodihydrofluorescein diacetate, acetyl ester (CM–H2DCFDA) (Molecular Probes-Invitrogen) for 25 min in the dark. Afterwards, cells were washed with PBS and incubated with increasing concentrations of the tested complexes. The fluorescence increase was estimated with a plate reader (Fluoroskan Ascent FL, Labsystem, Finland) at 485 (excitation) and 527 nm (emission). Antimycin (3 μM, Sigma Chemical Co.), a potent inhibitor of Complex III in the electron transport chain, was used as positive control.

Molecules are shown by their SMILES.

As for `[NH2][Pt]([NH2])([OH])([Cl])([Cl])[O]C(=O)Cc1c[nH]c2ccccc12` [Complex 1A], in assay [1], the IC50 turned out to be 2.51 ± 1.5 µM and the “RF (resistance factor)” value amounted to 0.9. For the same compound, the “DNA platination (in words)” value in assay [2] is given as “most effective platination of cellular DNA”. In assay [3], it took 9 ± 3.13 µM to reach half-maximal inhibition (IC50) and the “times more effective than cisplatin” value is reported as “about two times”. Besides, in assay [4], half-maximal inhibition (IC50) was put at 2640 ± 970 nM and the “times more effective than cisplatin” value is reported as “four times”.

Consider `[NH2][Pt]([NH2])([OH])([Cl])([Cl])[O]C(=O)CCc1c[nH]c2ccccc12` [Complex 1P, cis,cis,trans-[Pt(NH3)2Cl2(IPA)(OH)]], for which the IC50 in assay [1] amounted to 1.14 ± 0.5 µM; in assay [3] it was 3.66 ± 0.91 µM; in assay [4] it was 2260 ± 990 nM. Further, in assay [1], the “RF (resistance factor)” value turned out to be 0.8. Also, the “DNA platination (in words)” value in assay [2] is on record as “highest degree of DNA platination”. Further, in assay [2] (GF-AAS), the “DNA platination level, fold higher than cisplatin” value is reported as “roughly 60”. Also, the “times more effective than cisplatin” value is on record as “about two times” in assay [3] and “four times” in assay [4]. The “ROS production (in words)” value in assay [5] was “superior to that induced by antimycin”.

For the compound `[NH2][Pt]([NH2])([Cl])([Cl])([O]C(=O)Cc1c[nH]c2ccccc12)[O]C(=O)c1ccccc1` [Complex 3A], the IC50 in assay [1] is 6.52 ± 1.96 µM; in assay [3] it was 3.67 ± 1.31 µM; in assay [4], 2560 ± 1070 nM. The “RF (resistance factor)” value in assay [1] came to 0.7. Moreover, the “DNA platination (in words)” value in assay [2] was “most effective platination of cellular DNA”.

As for `[NH2][Pt]([NH2])([Cl])([Cl])([O]C(=O)CCC(=O)O)[O]C(=O)Cc1c[nH]c2ccccc12` [Complex 4A], the half-maximal inhibitory concentration (IC50) in assay [1] is greater than 50 µM; in assay [3], greater than 50 µM; in assay [4], greater than 50000 nM. In addition, the “DNA platination (in words)” value in assay [2] was “lowest DNA platination capability”. For the same compound, the “ROS production (in words)” value in assay [5] is recorded as “did not alter the cellular ROS concentration”.

As for `CC(=O)[O][Pt]([NH2])([NH2])([Cl])([Cl])[O]C(=O)Cc1c[nH]c2ccccc12` [Complex 5A], the IC50 was 46.6 ± 3.41 µM in assay [1], 44.75 ± 0.07 µM in assay [3] and 44400 ± 6190 nM in assay [4]. The “RF (resistance factor)” value in assay [1] amounted to 1.1. The “DNA platination (in words)” value in assay [2] is on record as “lowest DNA platination capability”. Moreover, the “ROS production (in words)” value in assay [5] was “did not alter the cellular ROS concentration”.
